In patent US11607426B2, “Method of targeting oncolytic viruses to tumors” (UNIVERSITY OF SOUTH FLORIDA, priority 2016, dated 2023):
Read-outs that look alike come from different tables or passages of the source.

Tests used:
[1] = molecular target: IDO (Homo sapiens, UniProt P14902); assay type: cell-based; details: RSV-infected MSCs treated with 1 mM 1-MT or 10 μM vitamin K3
[2] = test system: RSV; assay: RSV infection (viral titers) in 1-MT or vitamin K3 treated human MSCs; assay type: cell-based, respiratory syncytial virus; details: human MSCs treated with 1-MT or vitamin K3
[3] = test system: PBMCs; assay type: cell-based, human
[4] = test system: hMSCs; assay: Boyden chamber invasion assay, hMSC migration towards LLC1 cells; details: media containing 1MT, 24 hours coculture
Experimental: Migrated MSCs were counted after 24 h.
To test the effect of 1-MT on the migratory capacity of hMSCs the inventors used a Boyden chamber invasion assay with Lewis lung carcinoma (LLC1) cells in the bottom chamber to produce trophic factors. MSCs were seeded on the top of a matrigel layer above a PET membrane with 8.0 μm pores (BD Bioscience) and treated with control MSC media or media containing 1MT. Cells were cocultured for 24 hours before fixation in 4% paraformaldehyde in PBS. Upper matrigel layer was removed by cue tip and migrant cells were visualized and counted by Giemsa staining.

Chain of IDO (P14902 whole entry): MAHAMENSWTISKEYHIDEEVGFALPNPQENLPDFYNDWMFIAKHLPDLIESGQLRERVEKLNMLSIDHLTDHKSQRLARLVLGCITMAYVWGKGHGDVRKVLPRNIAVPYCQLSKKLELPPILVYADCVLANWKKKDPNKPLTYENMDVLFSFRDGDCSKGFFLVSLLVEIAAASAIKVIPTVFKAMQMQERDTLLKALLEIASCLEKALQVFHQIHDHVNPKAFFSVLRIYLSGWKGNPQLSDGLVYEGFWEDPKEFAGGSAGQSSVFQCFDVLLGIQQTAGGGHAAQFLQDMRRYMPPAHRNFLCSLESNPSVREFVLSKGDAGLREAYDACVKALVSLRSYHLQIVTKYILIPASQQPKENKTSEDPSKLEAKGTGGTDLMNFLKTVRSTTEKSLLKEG

Row | Compound | kynurenine levels [1] | RSV infection as determined by viral titers [2] | effect on inhibition of PBMC proliferation by RSV-infected MSC conditioned medium (CFSE dye dilution) ([3]; 1 mM 1-MT or 10 μM vitamin K3, PHA, 5 days, flow cytometry) | effect on inhibition of PBMC proliferation by RSV-infected MSC conditioned medium (CFSE dye dilution) [3] | migration of hMSC towards LLC1 cells [4]
1 | CC1=CC(=O)c2ccccc2C1=O [vitamin K3] | reduced kynurenine levels | did not reduce RSV infection | abolished the negative effect on PBMC proliferation | – | –
2 | Cn1cc(C[C@H](N)C(=O)O)c2ccccc21 [1-MT, 1-methyltryptophan] | – | did not reduce RSV infection | – | abolished the negative effect on PBMC proliferation | did not inhibit migration
